Data reported in ChEMBL document CHEMBL1141127, “Investigation of the binding determinants of phosphopeptides targeted to the SRC homology 2 domain of the signal transducer and activator of transcription 3. Development of a high-affinity peptide inhibitor” (J Med Chem, 2005).
Square brackets hold non-standard residues; d marks the D form. Peptide text beside a SMILES is read from it. pY = N[C@@H](Cc1ccc(OP(=O)(O)O)cc1)C(=O)O; Dip = N[C@H](C(=O)O)C(c1ccccc1)c1ccccc1; NMeL = CN[C@@H](CC(C)C)C(=O)O

Tests used:
[1] = target: T1, Signal transducer and activator of transcription 3 (Homo sapiens, UniProt P40763); experiment: Inhibitory concentration against signal transducer and activator of transcription 3 (stat3) by (EMSA) electrophoretic mobility shift assay
T1 sequence (P40763 whole entry): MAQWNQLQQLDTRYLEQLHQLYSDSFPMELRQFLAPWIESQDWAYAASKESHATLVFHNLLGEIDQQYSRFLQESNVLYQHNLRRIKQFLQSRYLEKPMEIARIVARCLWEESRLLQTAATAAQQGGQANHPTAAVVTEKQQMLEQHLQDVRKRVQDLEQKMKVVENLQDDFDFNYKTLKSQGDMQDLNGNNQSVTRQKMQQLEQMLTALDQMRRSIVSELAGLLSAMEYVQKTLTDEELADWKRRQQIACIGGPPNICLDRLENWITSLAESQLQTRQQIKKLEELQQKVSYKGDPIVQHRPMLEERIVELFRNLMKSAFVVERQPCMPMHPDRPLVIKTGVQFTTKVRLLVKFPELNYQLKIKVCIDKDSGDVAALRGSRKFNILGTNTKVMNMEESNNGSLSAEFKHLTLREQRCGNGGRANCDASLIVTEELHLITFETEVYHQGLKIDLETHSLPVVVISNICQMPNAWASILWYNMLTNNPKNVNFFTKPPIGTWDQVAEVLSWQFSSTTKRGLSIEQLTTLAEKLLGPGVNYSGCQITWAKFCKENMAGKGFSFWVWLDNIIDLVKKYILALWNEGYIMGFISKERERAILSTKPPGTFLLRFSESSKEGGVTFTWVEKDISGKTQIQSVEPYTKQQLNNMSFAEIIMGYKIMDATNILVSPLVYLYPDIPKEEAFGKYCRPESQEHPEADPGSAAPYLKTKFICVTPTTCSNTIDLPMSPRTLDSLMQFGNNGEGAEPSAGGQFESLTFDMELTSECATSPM

[2] = target: T1, Signal transducer and activator of transcription 3; experiment: Inhibitory concentration against signal transducer and activator of transcription 3 (stat3) using 5-carboxyfluoresceinyl-Ala-Tyr(PO3H2)-Leu-Pro-Gln-Thr-Val-NH2 by FP assay

Row | IC50 [2] [nM] | Compound | IC50 [1] [nM]
1 | – | CC(=O)N[C@@H](Cc1ccc(OP(=O)(O)O)cc1)C(=O)N[C@@H](CC(C)C)C(=O)N1CCC[C@H]1C(=O)N[C@@H](CCC(N)=O)C(=O)N[C@H](C(N)=O)[C@@H](C)O | 600
2 | – | CC(=O)N[C@@H](Cc1ccc(OP(=O)(O)O)cc1)C(=O)N[C@@H](CC(C)C)C(=O)N1CCC[C@H]1C(=O)N[C@@H](CCC(N)=O)C(N)=O (Ac-[pY]LPQ-NH2) | 1000
3 | > 100000 | CC(=O)N[C@@H](Cc1ccc(OP(=O)(O)O)cc1)C(=O)N[C@H](C(=O)N1CCC[C@H]1C(=O)N[C@@H](CCC(N)=O)C(=O)N[C@H](C(N)=O)[C@@H](C)O)C(c1ccccc1)c1ccccc1 (Ac-[pY][Dip]PQT-NH2) | –
4 | > 100000 | CC(=O)N[C@@H](Cc1ccc(OP(=O)(O)O)cc1)C(=O)N(C)[C@@H](CC(C)C)C(=O)N1CCC[C@H]1C(=O)N[C@@H](CCC(N)=O)C(=O)N[C@H](C(N)=O)[C@@H](C)O (Ac-[pY][NMeL]PQT-NH2) | –

Row | Compound | IC50 [2] [nM] | IC50 [1] [nM]
5 | CC(=O)N[C@@H](Cc1ccc(OP(=O)(O)O)cc1)C(=O)N[C@@H](CC(C)C)C(=O)N1CCC[C@@H]1C(=O)N[C@@H](CCC(N)=O)C(=O)N[C@H](C(N)=O)[C@@H](C)O | > 100000 | –
